Reference: US20080004266A1, “Method for treating proliferative disorders associated with protooncogene products” (priority 2006, published 2008)
Several values for one entry are separate records, joined by “and”; a condition that tells them apart may be missing. Equal values may be shown once.

Columns and labels:
[1] = tested on: human chronic myelogenous leukemia tumor cell line K-562; assay: K-562 (Bcr-Abl) SCID mouse xenograft model; assay type: in vivo, human (xenograft in SCID mouse); conditions: 35 mg/kg i.v. 5 times per week, day 17
Protocol: Growth of this tumor cell line is dependent upon the expression of the Bcr-Abl fusion protein (C. Gambacarti-Passerini et al., Blood Cells Mol. Dis. 23:380-394, 1997). The cells were cultured in growth media prepared with Iscove's Modified Dulbecco's Media, 10% fetal bovine serum (FBS), 1% 100× Penicillin-Streptomycin, 1% 100× sodium pyruvate and 1% 100×MEM non-essential amino acids. FBS was obtained from ATCC and all other reagents were obtained from Invitrogen Corp. (Carlsbad, Calif., USA). Cells that had been cryopreserved in liquid nitrogen were rapidly thawed at 37° C. and transferred to a tissue culture flask containing growth media and then incubated at 37° C. in a 5% CO2 incubator. […]
Seven to eight week old, female CB17/Icr-Prkdc^scid/Crl (SCID) mice were obtained from Charles River Laboratories (Wilmington, Mass., USA). […] To implant K-562 tumor cells into SCID mice, cell cultures were centrifuged to pellet the cells, the supernatant was aspirated, the cell pellet was resuspended in 10 ml of growth media and the cell number determined using a hemocytometer. […]
Tumors were then permitted to develop in vivo until the majority reached 100-200 mm^3 in tumor volume, which typically required 1-2 weeks following implantation. […] Tumor volumes (V) were calculated by caliper measurement of the width (W), length (L) and thickness (T) of tumors using the following formula: V=0.5236×(L×W×T). […]

[2] = tested on: NPM-ALK; assay: Degradation of NPM-ALK in Karpas-299 cells (Western blot); assay type: cell-based, human; conditions: 18 hours
Protocol: Anaplastic large-cell lymphoma cells, Karpas-299 cells (the German resource center for biological material) (2×10^6 cells), which harbor the fusion protein NPM-ALK, were treated (0.05 μM, 0.1 μM and 0.5 μM) with either Compound 226 or 17-AAG. After 18 hours and the cells were lysed with 1× lysis buffer and a western blot was perform using an anti-ALK antibody to detect and phosphorylated NPM-ALK and total NPM-ALK.

CC(C)c1cc(-c2nnc(O)n2-c2ccc3c(ccn3C)c2)c(O)cc1O [Compound 226, 3-(2,4-di-hydroxy-5-isopropyl-phenyl)-4-(1-methyl-indol-5-yl)-5-hydroxy-[1,2,4] triazole]
average bodyweight loss relative to the start of the study [1]: −12.4% (+/−1.4 SEM)
% T/C value ([1]; SCID mice, 6 doses, 35 mg/kg): 25% and 24.7%
degradation of phosphorylated and total NPM-ALK ([2]; 0.05 μM and 0.1 μM): partial degradation
degradation of phosphorylated NPM-ALK ([2]; 0.5 μM): total degradation
